Among the data in patent US7645785B2, “Benzimidazole derivatives” (Hoffmann-La Roche Inc., priority 2006, dated 2010) are IC50 and EC50 values, retold here.

Assay [1] deals with T1, FXR ligand binding domain (GST-FXR LBD fusion protein) (Homo sapiens, UniProt Q96RI1).
T1 construct: made in house; host or cells: E. coli BL21 (pLysS)
T1 sequence (Q96RI1 193-472 isoform Q96RI1-2 limits assumed): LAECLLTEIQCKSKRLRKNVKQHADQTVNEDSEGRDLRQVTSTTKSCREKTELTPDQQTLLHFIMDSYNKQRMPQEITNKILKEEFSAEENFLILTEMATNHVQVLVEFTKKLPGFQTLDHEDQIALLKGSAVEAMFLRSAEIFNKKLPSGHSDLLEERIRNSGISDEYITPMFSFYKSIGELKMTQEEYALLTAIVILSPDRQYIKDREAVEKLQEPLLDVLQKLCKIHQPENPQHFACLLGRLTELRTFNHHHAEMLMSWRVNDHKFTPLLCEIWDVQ
In words: Radioligand binding assay (scintillation proximity, radioligand displacement). The method, then: The following tests were carried out in order to determine the activity of the compounds of formula (I). Background information on the binding assay can be found in: Nichols J S et al. “Development of a scintillation proximity assay for peroxisome proliferator-activated receptor gamma ligand binding domain”, (1998) Anal. Biochem. 257: 112-119.
(§1) Bacterial and mammalian expression vectors were constructed to produce glutathione-s-transferase (GST) and Gal4 DNA binding domain (GAL) proteins fused to the ligand binding domain (LBD) of human FXR (aa 193-473). To accomplish this, the portions of the sequences encoding the FXR LBD were amplified by polymerase chain reaction (PCR) from a full-length clone by PCR and then subcloned into the plasmid vectors. The final clone was verified by DNA sequence analysis.
The induction, expression, and subsequent purification of GST-LBD fusion protein was performed in E. coli strain BL21 (pLysS) cells by standard methods (Current Protocols in Molecular Biology, Wiley Press, ed. Ausubel et al).
Radioligand Binding Assay
Binding of test substances to the FXR ligand binding domain was assessed in a radioligand displacement assay. […] All binding assays were performed in 96-well plates and the amount of bound ligand was measured on a Packard TopCount using OptiPlates (Packard). […]
Background: SPA uses beads or plates that emit light when radiolabelled molecules are held near them.

Assay [2] addresses T2, FXR-LBD (pFA-FXR-LBD, Gal4 fusion) in BHK21 cells (Homo sapiens, UniProt Q96RI1).
T2 sequence (Q96RI1 262-486 limits assumed): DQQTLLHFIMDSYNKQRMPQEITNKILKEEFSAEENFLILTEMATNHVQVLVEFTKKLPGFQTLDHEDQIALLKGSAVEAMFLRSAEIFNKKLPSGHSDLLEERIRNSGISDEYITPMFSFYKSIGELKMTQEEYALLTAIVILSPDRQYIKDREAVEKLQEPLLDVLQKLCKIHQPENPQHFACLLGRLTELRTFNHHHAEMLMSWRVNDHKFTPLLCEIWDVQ
In words: Luciferase transcriptional reporter gene assay. It is filed as cell-based.
From the text: as §1
Luciferase Transcriptional Reporter Gene Assays
Baby hamster kidney cells (BHK21 ATCC CCL10) were grown in DMEM medium containing 10% FBS at 37° C. in a […]:5% CO2 atmosphere. Cells were seeded in 6-well plates at a density of 10^5 cells/well and then transfected with the pFA-FXR-LBD or expression plasmid plus a reporter plasmid. […] Six hours following transfection, the cells were harvested by trypsinization and seeded in 96-well plates at a density of 10^4 cells/well. […] Luminescence, as a measure of luciferase activity, was detected in a Packard TopCount. Transcriptional activation in the presence of a test substance was expressed as fold-change in luminescence compared to that of cells incubated in the absence of the substance. EC50 values were calculated using the XLfit program (ID Business Solutions Ltd. UK).

What is called IC50 is the concentration that gives 50% inhibition. A higher IC50 goes with a need for much substance. As usually defined, the EC50 is the midpoint of the concentration-response curve. High values mean weaker potency, low ones greater potency. As to `COc1ccc(-c2nc3ccccc3n2C(C(=O)NCc2ccccc2)C2CCCCC2)c(OC)c1` (stereo not shown) [Example 34, N-benzyl-2-cyclohexyl-2-[2-(2,4-dimethoxy-phenyl)-benzoimidazol-1-yl]-acetamide], in assay [1], the IC50 was determined as 500 nM. In assay [2], this compound came in with an EC50 of 86 nM.
The matching figures for `CC(C)CC(C(=O)NC1CCCCC1)n1c(-c2ccc(Cl)cc2)nc2ccccc21` (stereo not shown) [Example 2, 2-[2-(4-chloro-phenyl)-benzoimidazol-1-yl]-4-methyl-pentanoic acid cyclohexylamide]: 1500 nM and 700 nM.
